Like-named read-outs stand apart in the source and are kept apart here.
Legend:
[1] = tested on: streptozotocin-induced diabetic neuropathy model of neuropathic pain; details: rat, in vivo; for maximum non-sedating dose / reduction in hyperalgesia: iv
[2] = rat, in vivo; for maximum non-sedating dose: iv
[3] = tested on: carrageenan paw inflammation model; details: rat, in vivo
[4] = tested on: rat model of diabetic neuropathic pain; set-up: species or system rats; details: in vivo
[5] = tested on: rat model of prostate bone cancer pain; test: animal or person; assay type: in vivo, Male Wistar rats; details: rat, in vivo
[6] = dog, in vivo, iv
[7] = in vivo; cited from earlier work

Compound	maximum non-sedating dose [1]	maximum non-sedating dose [2]	analgesic response compared to saline administration [3]	duration of antinociceptive responses following injection of the bolus ([3]; ip)	antinociceptive effect [4]	reversal of the hyperalgesia caused by intratibial prostate bone cancer (FIG. 7) [5]	antinociceptive effects ([5]; iv)	adverse effects on cardiovascular function [6]	toxicological or pathological effect [6]	efficacy compared with gabapentin or morphine alone or in combination [1]	reduction in hyperalgesia ([1]; 0.02 mg/kg)	reduction in hyperalgesia ([1]; 2 mg/kg)	mean rest times [2]	toxicity on intravenous administration [7]
CSCC[C@@H]1NC(=O)[C@H](CC(C)C)NC(=O)[C@H](CCCNC(=N)N)NC(=O)[C@H](CO)NC(=O)[C@@H]2CSSC[C@@H]3NC(=O)[C@H](CO)NC(=O)CNC(=O)[C@H]([C@@H](C)O)NC(=O)[C@H](CSSC[C@H](N)C(=O)N[C@@H](CCCCN)C(=O)NCC(=O)N[C@@H](CCCCN)C(=O)NCC(=O)N[C@@H](C)C(=O)N[C@@H](CCCCN)C(=O)N2)NC(=O)[C@H](CSSC[C@@H](C(N)=O)NC(=O)[C@H](CCCCN)NC(=O)CNC(=O)[C@H](CO)NC(=O)[C@H](CCCNC(=N)N)NC3=O)NC(=O)[C@H](CC(=O)O)NC(=O)[C@H](Cc2ccc(O)cc2)NC1=O [MVIIA, ziconotide]	0.02 mg/kg	0.02 mg/kg												
leconotide [CVID]	2.0 mg/kg	2 mg/kg	effective at inducing an analgesic response	4 to 6 h	dose related antinociceptive effects	small, statistically non-significant reversal	no significant antinociceptive effects	no adverse effects on cardiovascular function	no toxicological or pathological effect was observed	improved efficacy	approximately 30%	greater than 50%	982.89 s	less toxic than ziconotide
